Measurements reported in patent EP2272817A1, “PAI-1 INHIBITOR” (Institute of Medicinal Molecular Design, Inc., priority 2008, dated 2009).

The compounds below were run against recombinant human PAI-1 (Homo sapiens, UniProt P05121) (assay: biochemical). Details: read-out: Inhibition Rate of PAI-1 Activity (%).
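Also: PAI-1 preincubated with compound, then two-chain tPA added, residual tPA activity read with fluorogenic Pyr-Gly-Arg-MCA substrate after 30 min at room temperature.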

Sequence of recombinant human PAI-1 (P05121 24-402): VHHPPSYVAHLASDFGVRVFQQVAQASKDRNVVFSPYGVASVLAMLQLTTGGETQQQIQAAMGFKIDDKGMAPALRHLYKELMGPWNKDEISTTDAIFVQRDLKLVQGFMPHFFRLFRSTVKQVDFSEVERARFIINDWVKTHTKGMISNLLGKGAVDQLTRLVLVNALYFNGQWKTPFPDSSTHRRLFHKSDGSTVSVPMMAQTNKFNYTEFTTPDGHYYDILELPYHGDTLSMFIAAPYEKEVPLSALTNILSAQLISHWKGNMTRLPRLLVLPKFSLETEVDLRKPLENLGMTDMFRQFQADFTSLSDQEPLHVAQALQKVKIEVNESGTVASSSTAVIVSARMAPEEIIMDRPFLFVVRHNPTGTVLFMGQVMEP

Row | SMILES | inhibition at 5 µM [%] | inhibition at 10 µM [%] | inhibition at 25 µM [%]
1 | CC(C)(C)c1ccc(COc2ccc(Oc3ccc(OC(F)(F)F)cc3)cc2/C=C/C(=O)O)cc1 [Compound 95] | 28 | 77 | 96
2 | O=C(O)/C=C/c1c(Oc2ccc(OC(F)(F)F)cc2)cccc1Oc1ccc(OC(F)(F)F)cc1 [Compound 97] | 30 | 40 | 53
3 | CC(C)(C)c1ccc(Oc2ccc(Oc3ccc(OC(F)(F)F)cc3)cc2/C=C/C(=O)O)cc1 [Compound 99] | 31 | 66 | 99
4 | O=C(O)CCc1cc(-c2ccc(OC(F)(F)F)cc2)ccc1OCCCc1ccccc1 [Compound 101] | 42 | 73 | > 99
5 | O=C(O)CCc1cc(-c2ccc(OC(F)(F)F)cc2)ccc1OCCCOc1ccccc1 [Compound 103] | 33 | 57 | 89
6 | O=C(O)CCc1cc(-c2ccc(OC(F)(F)F)cc2)ccc1OCCCCCc1ccccc1 [Compound 104] | 47 | 77 | 96
7 | CC(C)(C)c1ccc(COc2ccc(-c3ccc(OC(F)(F)F)cc3)cc2COCC(=O)O)cc1 [Compound 107] | 48 | 85 | 97
8 | CC(OCC(=O)O)c1cc(-c2ccc(OC(F)(F)F)cc2)ccc1OCc1ccc(C(C)(C)C)cc1 (stereo not drawn) [Compound 108] | 52 | 86 | 95
9 | CC(C)(C)c1ccc(COc2ccc(-c3ccc(OC(F)(F)F)cc3)cc2OCCCC(=O)O)cc1 [Compound 109] | 24 | 50 | 96
10 | CC(C)(Oc1ccc(-c2ccc(OC(F)(F)F)cc2)cc1Oc1ccc(C(C)(C)C)cc1)C(=O)O [Compound 110] | 37 | 51 | 83
11 | CC(C)(OCc1ccc(-c2ccc(OC(F)(F)F)cc2)cc1Oc1ccc(C(C)(C)C)cc1)C(=O)O [Compound 111] | 55 | 88 | 94
12 | CCC(Oc1ccc(-c2ccc(OC(F)(F)F)cc2)cc1Oc1ccc(C(C)(C)C)cc1)C(=O)O (stereo not drawn) [Compound 114] | 64 | 87 | 95
13 | O=C(O)COc1cc(-c2ccc(OC(F)(F)F)cc2)ccc1OCCCCc1ccccc1 [Compound 115] | 34 | 59 | 90
14 | CC(C)(C)c1ccc(Oc2cc(-c3ccc(OC(F)(F)F)cc3)ccc2OC(F)C(=O)O)cc1 (stereo not drawn) [Compound 119] | 75 | 93 | 99
15 | CC(C)(C)c1ccc(Oc2cc(-c3ccc(OC(F)(F)F)cc3)ccc2OC(F)(F)C(=O)O)cc1 [Compound 120] | 59 | 87 | 98
16 | CC(C)(C)c1ccc(COc2ccc(-c3ccc(OC(F)(F)F)cc3)cc2OCc2nn[nH]n2)cc1 [Compound 122] | 29 | 63 | 99
17 | Cc1cc(C)cc(CN(C(=O)C(=O)O)c2ccc(-c3ccc(OC(F)(F)F)cc3)cc2)c1 [Compound 123] | 27 | 62 | –
18 | O=C(O)C(=O)N(Cc1ccc(Cl)cc1)c1ccc(-c2ccc(OC(F)(F)F)cc2)cc1 [Compound 124] | 22 | 49 | –
19 | Cc1cccc(CN(C(=O)C(=O)O)c2ccc(-c3ccc(OC(F)(F)F)cc3)cc2)c1 [Compound 125] | 15 | 31 | –
20 | COc1ccc(-c2ccc(N(Cc3ccc(C(C)(C)C)cc3)C(=O)C(=O)O)cc2)cc1 [Compound 126] | 16 | 43 | –
21 | CC(C)(C)c1ccc(CN(C(=O)C(=O)O)c2ccc(-c3ccc(F)cc3)cc2)cc1 [Compound 127] | 21 | 43 | –
22 | CC(C)(C)c1ccc(N(C(=O)C(=O)O)c2ccc(-c3ccc(OC(F)(F)F)cc3)cc2)cc1 [Compound 128] | 58 | 89 | –
23 | COc1ccc(CN(C(=O)C(=O)O)c2ccc(-c3ccc(OC(F)(F)F)cc3)cc2)cc1 [Compound 131] | – | 10 | 34
24 | CC(C)(C)c1ccc(CN(C(=O)C(=O)O)c2ccc(Oc3ccc(OC(F)(F)F)cc3)cc2)cc1 [Compound 132] | – | 32 | 82
25 | CC(C)(C)c1ccc(CN(C(=O)C(=O)O)c2ccc(-c3ccc(OC(F)(F)F)cc3)cc2)cc1 [Compound 133] | 80 | 92 | –
26 | CSc1ccc(-c2ccc(N(Cc3ccc(C(C)(C)C)cc3)C(=O)C(=O)O)cc2)cc1 [Compound 134] | – | 14 | 75

Row | SMILES | inhibition at 5 µM [%] | inhibition at 10 µM [%] | inhibition at 25 µM [%]
27 | CC(C)(C)c1ccc(CN(C(=O)C(=O)O)c2ccc(-c3ccc(Cl)cc3)cc2)cc1 [Compound 135] | – | 6 | 67
28 | Cc1ccc(-c2ccc(OC(F)(F)F)cc2)cc1N(Cc1ccc(C(C)(C)C)cc1)C(=O)C(=O)O [Compound 136] | 16 | 47 | 79
29 | Cc1ccc(-c2ccccc2)cc1N(Cc1ccc(C(C)(C)C)cc1)C(=O)C(=O)O [Compound 137] | – | 5 | 61
30 | Cc1ccc(-c2cccc([N+](=O)[O-])c2)cc1N(Cc1ccc(C(C)(C)C)cc1)C(=O)C(=O)O [Compound 138] | – | 4 | 61
31 | CC(C)(C)c1ccc(CN(C(=O)C(=O)O)c2cc(-c3ccccc3)cc(C(F)(F)F)c2)cc1 [Compound 140] | 6 | 31 | 77
32 | Cc1ccc(-c2ccc(N(Cc3ccc(C(C)(C)C)cc3)C(=O)C(=O)O)cc2)cc1 [Compound 141] | – | 5 | 52
33 | CC(C)(C)c1ccc(CN(C(=O)C(=O)O)c2ccc(-c3cccc([N+](=O)[O-])c3)cc2)cc1 [Compound 142] | – | 3 | 33
34 | Cc1ccc(CN(C(=O)C(=O)O)c2ccc(-c3ccc(OC(F)(F)F)cc3)cc2)cc1 [Compound 143] | – | 1 | 22
35 | O=C(O)C(=O)N(Cc1ccc(Cl)cc1Cl)c1ccc(-c2ccc(OC(F)(F)F)cc2)cc1 [Compound 144] | 3 | 22 | 76
36 | CC(C)(C)c1ccc(CN(C(=O)C(=O)O)c2ccc(-c3ccc(C(F)(F)F)cc3)cc2)cc1 [Compound 145] | 7 | 35 | 74
37 | Cc1cc(-c2ccc(OC(F)(F)F)cc2)ccc1N(Cc1ccc(C(C)(C)C)cc1)C(=O)C(=O)O [Compound 146] | 33 | 73 | 90
38 | CC(C)(C)c1ccc(CN(C(=O)C(=O)O)c2ccccc2-c2ccc(OC(F)(F)F)cc2)cc1 [Compound 148] | 17 | 55 | 98
39 | CC(C)(C)c1ccc(CN(C(=O)C(=O)O)c2ccc(-c3ccc(C#N)cc3)cc2)cc1 [Compound 149] | – | 3 | 34
40 | CC(C)(C)c1ccc(CN(C(=O)C(=O)O)c2ccc(-c3ccc(OC(F)(F)F)cc3)cc2C(F)(F)F)cc1 [Compound 150] | 33 | 75 | 87
41 | CC(C)(C)c1ccc(CN(C(=O)C(=O)O)c2ccc(-c3ccc(OC(F)(F)F)cc3)cc2OC(F)(F)F)cc1 [Compound 151] | 35 | 80 | 90
42 | Cc1cc(-c2ccc(OC(F)(F)F)cc2)cc(C)c1N(Cc1ccc(C(C)(C)C)cc1)C(=O)C(=O)O [Compound 152] | 41 | 88 | 93
43 | CC(C)(C)c1ccc(CN(C(=O)C(=O)O)c2ccccc2Oc2ccc(OC(F)(F)F)cc2)cc1 [Compound 153] | 20 | 54 | 93
44 | O=C(O)C(=O)N(Cc1ccccc1)c1ccc(Oc2ccc(OC(F)(F)F)cc2)cc1 [Compound 154] | – | 3 | 20
45 | O=C(O)C(=O)N(Cc1ccc(F)cc1)c1ccc(-c2ccc(OC(F)(F)F)cc2)cc1 [Compound 155] | 7 | 15 | 38
46 | CC(C)(C)c1ccc(-c2ccc(N(Cc3ccccc3)C(=O)C(=O)O)cc2)cc1 [Compound 156] | 10 | 25 | 67
47 | CC(C)(C)c1ccc(N(C(=O)C(=O)O)c2ccccc2-c2ccc(OC(F)(F)F)cc2)cc1 [Compound 157] | 25 | 56 | 96
48 | CC(C)(C)c1ccc(N(C(=O)C(=O)O)c2cccc(-c3ccc(OC(F)(F)F)cc3)c2)cc1 [Compound 158] | 26 | 61 | > 99
49 | O=C(O)C(=O)N(Cc1ccc(OC(F)(F)F)cc1)c1ccc(-c2ccc(OC(F)(F)F)cc2)cc1 [Compound 159] | 21 | 45 | 92
50 | CSc1ccc(CN(C(=O)C(=O)O)c2ccc(-c3ccc(OC(F)(F)F)cc3)cc2)cc1 [Compound 160] | 14 | 26 | 68
51 | O=C(O)C(=O)N(Cc1ccc(-c2ccccc2)cc1)c1ccc(-c2ccc(OC(F)(F)F)cc2)cc1 [Compound 161] | 27 | 62 | > 99
52 | CC(C)(C)c1ccc(-c2ccc(N(Cc3ccc(OC(F)(F)F)cc3)C(=O)C(=O)O)cc2)cc1 [Compound 162] | 30 | 74 | > 99
